The target in experiment [1] is T1, Coagulation factor VII (Homo sapiens, UniProt P08709).
T1 sequence (P08709 whole entry): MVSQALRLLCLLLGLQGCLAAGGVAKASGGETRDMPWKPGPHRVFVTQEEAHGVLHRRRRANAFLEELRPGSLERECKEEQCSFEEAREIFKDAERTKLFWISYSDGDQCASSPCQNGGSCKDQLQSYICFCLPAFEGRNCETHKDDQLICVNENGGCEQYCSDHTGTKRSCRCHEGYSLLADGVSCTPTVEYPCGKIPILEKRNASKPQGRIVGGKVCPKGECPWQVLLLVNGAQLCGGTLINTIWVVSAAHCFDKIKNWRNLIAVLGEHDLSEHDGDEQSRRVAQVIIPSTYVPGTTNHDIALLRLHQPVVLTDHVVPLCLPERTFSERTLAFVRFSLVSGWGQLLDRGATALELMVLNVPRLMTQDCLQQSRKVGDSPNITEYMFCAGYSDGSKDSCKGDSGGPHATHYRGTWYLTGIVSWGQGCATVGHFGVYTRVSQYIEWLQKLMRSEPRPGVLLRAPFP
In words: The value of binding constant measured against coagulation factor VII.

The target in experiment [2] is Serine protease 1 (Homo sapiens, UniProt P07477). In words: The value of binding constant measured against human trypsin.
Experiment [3] deals with Prothrombin (Homo sapiens, UniProt P00734). Nature of the experiment: The value of binding constant measured against human Thrombin.
Experiment [4] addresses Coagulation factor X (Homo sapiens, UniProt P00742). In words: The value of binding constant measured against coagulation factor X (factor Xa).

Some results are limits rather than exact numbers.

Sequence of Coagulation factor X (P00742 41-179 limits assumed): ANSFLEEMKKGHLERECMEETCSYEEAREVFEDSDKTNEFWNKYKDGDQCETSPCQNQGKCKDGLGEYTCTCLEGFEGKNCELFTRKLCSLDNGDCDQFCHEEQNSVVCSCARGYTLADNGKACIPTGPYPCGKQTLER
Sequence of Coagulation factor X (P00742 235-488 limits assumed): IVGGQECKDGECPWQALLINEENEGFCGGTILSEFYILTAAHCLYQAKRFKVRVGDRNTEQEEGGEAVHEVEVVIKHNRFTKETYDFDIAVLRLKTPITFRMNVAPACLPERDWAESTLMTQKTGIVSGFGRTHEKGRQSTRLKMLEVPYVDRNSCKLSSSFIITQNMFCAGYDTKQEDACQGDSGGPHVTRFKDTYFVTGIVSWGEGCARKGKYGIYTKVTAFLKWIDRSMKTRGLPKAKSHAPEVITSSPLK
Sequence of Serine protease 1 (P07477 whole entry): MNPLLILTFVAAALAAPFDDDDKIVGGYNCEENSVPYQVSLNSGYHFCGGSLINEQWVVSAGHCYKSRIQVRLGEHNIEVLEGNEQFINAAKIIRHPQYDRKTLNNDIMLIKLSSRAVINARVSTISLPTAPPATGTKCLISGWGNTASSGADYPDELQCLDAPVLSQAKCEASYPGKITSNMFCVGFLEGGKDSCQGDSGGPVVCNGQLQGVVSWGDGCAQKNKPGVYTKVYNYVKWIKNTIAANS

What is called Ki is the dissociation constant of the complex between target and ligand, obtained from inhibition or displacement. For `CCOc1cc(C(Nc2ccc(C(=N)N)cc2)C(=O)NCc2ccccc2)ccc1OCc1ccccc1` (stereo unspecified), the Ki in experiment [1] came out at 0.13 µM; in experiment [2], 1.1 µM; in experiment [3], 0.048 µM; in experiment [4] it was 4.5 µM.

Regarding `COc1ccc(C(Nc2ccc(C(=N)N)cc2)C(=O)NCc2ccccc2)cc1OC` (stereo unspecified), the Ki in experiment [1] stood at 0.35 µM; in experiment [2] it was 1.7 µM; in experiment [3], 0.46 µM; in experiment [4], 30 µM.

As to `COc1cc(C(Nc2ccc(C(=N)N)cc2)C(=O)NCc2ccccc2)c(S(=O)(=O)c2ccccc2)cc1OCc1ccccc1` (stereo unspecified), the Ki is 0.16 µM in experiment [1], 0.42 µM in experiment [2], 1.7 µM in experiment [3] and over 74 µM in experiment [4].

Regarding `COc1cc([C@@H](Nc2ccc(C(=N)N)cc2)C(=O)N[C@H](C(=O)O)c2ccccc2)c(C(=O)Cc2ccccc2)cc1OCc1ccccc1`, the inhibition constant Ki in experiment [1] was determined as 0.007 µM; in experiment [2], 0.08 µM; in experiment [3], 6.4 µM; in experiment [4] it was 19 µM.

Regarding `CCOc1ccc(C(Nc2ccc(C(=N)N)cc2)C(=O)NCc2ccccc2)cc1OCC` (stereo unspecified), the Ki was determined as 0.04 µM in experiment [1], 2 µM in experiment [2], 0.57 µM in experiment [3] and 19 µM in experiment [4].

`COc1cc([C@@H](Nc2ccc(C(=N)N)cc2)C(=O)N[C@H](C(=O)O)c2ccccc2)ccc1OCc1ccccc1`: the Ki was 0.04 µM in experiment [2], 0.035 µM in experiment [3] and 8 µM in experiment [4].

On to `CCOc1ccc(CNc2ccc(C(=N)N)cc2)cc1OCC`, for which the Ki in experiment [2] worked out at 2 µM; in experiment [3], 4.5 µM; in experiment [4] it was 39 µM.

`COc1cc(CNc2ccc(C(=N)N)cc2)ccc1OCc1ccccc1`: the inhibition constant (Ki) in experiment [1] was 1 µM; in experiment [2], 0.58 µM; in experiment [3] it was 0.27 µM; in experiment [4] it was 1.2 µM.

In the case of `COc1cc([C@@H](Nc2ccc(C(=N)N)cc2)C(=O)N[C@H](C(=O)O)c2ccccc2)c(S(=O)(=O)c2ccccc2)cc1OCc1ccccc1`, the Ki was 0.05 µM in experiment [2], 0.54 µM in experiment [3] and 12.4 µM in experiment [4].

Regarding `COc1cc(CNc2ccc(C(=N)N)cc2)c(NS(C)(=O)=O)cc1OCc1ccccc1`, the Ki in experiment [1] was 0.38 µM; in experiment [2] it was 0.4 µM; in experiment [3], 1.4 µM; in experiment [4], 26 µM.

As for `COc1cc(C(Nc2ccc(C(=N)N)cc2)C(=O)NCc2ccccc2)ccc1OCc1ccccc1` (stereo unspecified), the inhibitory constant (Ki) stood at 0.22 µM in experiment [1], 0.21 µM in experiment [2], 0.043 µM in experiment [3] and 5.3 µM in experiment [4].

For the origin of these results see ChEMBL document CHEMBL1144307, “Design of selective phenylglycine amide tissue factor/factor VIIa inhibitors” (Bioorg Med Chem Lett, 2005).
